Assay results from ChEMBL document CHEMBL4804284.
Active and inactive are the calls of the source. The rule behind the calls is not given here.

Key:
[1] = target: Cyclin-dependent kinase 11B (Homo sapiens) (UniProt P21127); test: Inhibition of DNA-tagged human CDC2L1 assessed as percent of control at 50000 nM by qPCR analysis relative to control; design: scale not given: the % may be the effect or the level left
[2] = target: Dual specificity mitogen-activated protein kinase kinase 1 (Homo sapiens) (UniProt Q02750); test: Inhibition of DNA-tagged human MEK1 assessed as percent of control at 50000 nM by qPCR analysis relative to control; design: scale not given: the % may be the effect or the level left
[3] = target: Casein kinase II subunit alpha (Homo sapiens) (UniProt P68400); test: Inhibition of DNA-tagged human CSNK2A1 assessed as percent of control at 50000 nM by qPCR analysis relative to control; design: scale not given: the % may be the effect or the level left
[4] = test system: Hepatocyte growth factor receptor (Homo sapiens), P08581 [Y1235D]; test: Inhibition of DNA-tagged human MET Y1235D mutant assessed as percent of control at 50000 nM by qPCR analysis relative to control; design: scale not given: the % may be the effect or the level left
KG-1 = test: Cytotoxicity against human KG-1 cells at 0.1-100 uM assessed as decrease in cell viability relative to control; type: functional, cell-based
[5] = target: Cytoplasmic tyrosine-protein kinase BMX (Homo sapiens) (UniProt P51813); test: Inhibition of DNA-tagged human BMX assessed as percent of control at 50000 nM by qPCR analysis relative to control; design: scale not given: the % may be the effect or the level left
[6] = target: Non-receptor tyrosine-protein kinase TYK2 (Homo sapiens) (UniProt P29597); test: Inhibition of DNA-tagged human TYK2 JH2 pseudokinase domain assessed as percent of control at 50000 nM by qPCR analysis relative to control; design: scale not given: the % may be the effect or the level left
[7] = target: Glycogen synthase kinase-3 beta (Homo sapiens) (UniProt P49841); test: Inhibition of DNA-tagged human GSK3B assessed as percent of control at 50000 nM by qPCR analysis relative to control; design: scale not given: the % may be the effect or the level left
[8] = target: Dual specificity tyrosine-phosphorylation-regulated kinase 1A (Homo sapiens) (UniProt Q13627); test: Inhibition of DNA-tagged human DYRK1A assessed as percent of control at 50000 nM by qPCR analysis relative to control; design: scale not given: the % may be the effect or the level left
[9] = target: Serine/threonine-protein kinase LATS2 (Homo sapiens) (UniProt Q9NRM7); test: Inhibition of DNA-tagged human LATS2 assessed as percent of control at 50000 nM by qPCR analysis relative to control; design: scale not given: the % may be the effect or the level left
[10] = target: Tyrosine-protein kinase Fgr (Homo sapiens) (UniProt P09769); test: Inhibition of DNA-tagged human FGR assessed as percent of control at 50000 nM by qPCR analysis relative to control; design: scale not given: the % may be the effect or the level left
[11] = target: Dual specificity mitogen-activated protein kinase kinase 2 (Homo sapiens) (UniProt P36507); test: Inhibition of DNA-tagged human MEK2 assessed as percent of control at 50000 nM by qPCR analysis relative to control; design: scale not given: the % may be the effect or the level left
[12] = target: Tyrosine-protein kinase Fes/Fps (Homo sapiens) (UniProt P07332); test: Inhibition of DNA-tagged human FES assessed as percent of control at 50000 nM by qPCR analysis relative to control; design: scale not given: the % may be the effect or the level left
[13] = target: Tyrosine-protein kinase Lyn (Homo sapiens) (UniProt P07948); test: Inhibition of DNA-tagged human LYN assessed as percent of control at 50000 nM by qPCR analysis relative to control; design: scale not given: the % may be the effect or the level left
[14] = target: Epidermal growth factor receptor (Homo sapiens) (UniProt P00533); test: Inhibition of DNA-tagged human EGFR assessed as percent of control at 50000 nM by qPCR analysis relative to control; design: scale not given: the % may be the effect or the level left
[15] = target: Dual specificity mitogen-activated protein kinase kinase 5 (Homo sapiens) (UniProt Q13163); test: Inhibition of DNA-tagged human MEK5 assessed as percent of control at 50000 nM by qPCR analysis relative to control; design: scale not given: the % may be the effect or the level left
[16] = target: Serine/threonine-protein kinase PRP4 homolog (Homo sapiens) (UniProt Q13523); test: Inhibition of DNA-tagged human PRP4 assessed as percent of control at 50000 nM by qPCR analysis relative to control; design: scale not given: the % may be the effect or the level left
[17] = target: Mitogen-activated protein kinase kinase kinase 7 (Homo sapiens) (UniProt O43318); test: Inhibition of DNA-tagged human TAK1 assessed as percent of control at 50000 nM by qPCR analysis relative to control; design: scale not given: the % may be the effect or the level left
[18] = target: Tyrosine-protein kinase Blk (Homo sapiens) (UniProt P51451); test: Inhibition of DNA-tagged human BLK assessed as percent of control at 50000 nM by qPCR analysis relative to control; design: scale not given: the % may be the effect or the level left
[19] = test system: Epidermal growth factor receptor (Homo sapiens), P00533 [UNDEFINED MUTATION]; test: Inhibition of DNA-tagged human EGFR L747-E749del/A750P double mutant assessed as percent of control at 50000 nM by qPCR analysis relative to control; design: scale not given: the % may be the effect or the level left
[20] = target: Homeodomain-interacting protein kinase 4 (Homo sapiens) (UniProt Q8NE63); test: Inhibition of DNA-tagged human HIPK4 assessed as percent of control at 50000 nM by qPCR analysis relative to control; design: scale not given: the % may be the effect or the level left
[21] = target: Platelet-derived growth factor receptor beta (Homo sapiens) (UniProt P09619); test: Inhibition of DNA-tagged human PDGFRB assessed as percent of control at 50000 nM by qPCR analysis relative to control; design: scale not given: the % may be the effect or the level left
[22] = target: Leukocyte tyrosine kinase receptor (Homo sapiens) (UniProt P29376); test: Inhibition of DNA-tagged human LTK assessed as percent of control at 50000 nM by qPCR analysis relative to control; design: scale not given: the % may be the effect or the level left
[23] = target: Mitogen-activated protein kinase 11 (Homo sapiens) (UniProt Q15759); test: Inhibition of DNA-tagged human p38-beta assessed as percent of control at 50000 nM by qPCR analysis relative to control; design: scale not given: the % may be the effect or the level left
[24] = target: cAMP-dependent protein kinase catalytic subunit beta (Homo sapiens) (UniProt P22694); test: Inhibition of DNA-tagged human PKAC-beta assessed as percent of control at 50000 nM by qPCR analysis relative to control; design: scale not given: the % may be the effect or the level left
[25] = test system: Tyrosine-protein kinase ABL1 (Homo sapiens), P00519 [F317L]; test: Inhibition of DNA-tagged phosphorylated human ABL1 F317L mutant assessed as percent of control at 50000 nM by qPCR analysis relative to control; design: scale not given: the % may be the effect or the level left
[26] = target: Ribosomal protein S6 kinase alpha-1 (Homo sapiens) (UniProt Q15418); test: Inhibition of DNA-tagged human N-terminal RSK1 kinase domain 1 assessed as percent of control at 50000 nM by qPCR analysis relative to control; design: scale not given: the % may be the effect or the level left
[27] = target: Calcium/calmodulin-dependent protein kinase type 1 (Homo sapiens) (UniProt Q14012); test: Inhibition of DNA-tagged human CAMK1 assessed as percent of control at 50000 nM by qPCR analysis relative to control; design: scale not given: the % may be the effect or the level left
[28] = target: Mitogen-activated protein kinase kinase kinase 11 (Homo sapiens) (UniProt Q16584); test: Inhibition of DNA-tagged human MLK3 assessed as percent of control at 50000 nM by qPCR analysis relative to control; design: scale not given: the % may be the effect or the level left

Sequence of Platelet-derived growth factor receptor beta (Homo sapiens) (P09619 whole entry): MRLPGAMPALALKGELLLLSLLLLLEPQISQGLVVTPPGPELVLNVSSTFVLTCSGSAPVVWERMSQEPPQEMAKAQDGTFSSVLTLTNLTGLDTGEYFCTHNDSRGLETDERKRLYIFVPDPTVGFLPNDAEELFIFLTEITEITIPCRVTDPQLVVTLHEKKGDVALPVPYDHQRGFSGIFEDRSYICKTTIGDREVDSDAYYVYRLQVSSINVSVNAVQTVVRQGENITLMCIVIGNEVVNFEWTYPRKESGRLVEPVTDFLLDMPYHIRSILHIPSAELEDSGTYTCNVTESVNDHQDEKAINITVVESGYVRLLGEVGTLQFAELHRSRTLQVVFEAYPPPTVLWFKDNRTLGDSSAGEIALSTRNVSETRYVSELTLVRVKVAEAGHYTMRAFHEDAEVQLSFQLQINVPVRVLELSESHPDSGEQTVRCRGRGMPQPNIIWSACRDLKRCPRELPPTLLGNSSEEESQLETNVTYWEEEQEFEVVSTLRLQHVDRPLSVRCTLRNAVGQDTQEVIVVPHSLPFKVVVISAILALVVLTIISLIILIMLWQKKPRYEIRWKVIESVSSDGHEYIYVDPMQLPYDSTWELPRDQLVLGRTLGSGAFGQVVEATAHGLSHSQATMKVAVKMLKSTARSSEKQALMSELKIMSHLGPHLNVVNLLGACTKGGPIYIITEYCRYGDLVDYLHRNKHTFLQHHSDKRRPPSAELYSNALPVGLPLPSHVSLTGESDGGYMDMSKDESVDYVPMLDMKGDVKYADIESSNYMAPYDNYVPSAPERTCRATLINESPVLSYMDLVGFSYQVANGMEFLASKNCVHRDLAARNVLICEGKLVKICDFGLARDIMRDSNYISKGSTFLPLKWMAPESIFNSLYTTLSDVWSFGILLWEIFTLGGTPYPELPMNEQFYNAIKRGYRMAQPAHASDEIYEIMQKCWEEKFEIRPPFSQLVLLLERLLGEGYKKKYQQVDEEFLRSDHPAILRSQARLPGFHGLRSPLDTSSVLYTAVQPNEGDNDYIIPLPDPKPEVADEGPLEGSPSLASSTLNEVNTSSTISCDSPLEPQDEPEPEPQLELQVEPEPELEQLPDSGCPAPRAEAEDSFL
Sequence of Tyrosine-protein kinase Fgr (Homo sapiens) (P09769 2-529 limits assumed): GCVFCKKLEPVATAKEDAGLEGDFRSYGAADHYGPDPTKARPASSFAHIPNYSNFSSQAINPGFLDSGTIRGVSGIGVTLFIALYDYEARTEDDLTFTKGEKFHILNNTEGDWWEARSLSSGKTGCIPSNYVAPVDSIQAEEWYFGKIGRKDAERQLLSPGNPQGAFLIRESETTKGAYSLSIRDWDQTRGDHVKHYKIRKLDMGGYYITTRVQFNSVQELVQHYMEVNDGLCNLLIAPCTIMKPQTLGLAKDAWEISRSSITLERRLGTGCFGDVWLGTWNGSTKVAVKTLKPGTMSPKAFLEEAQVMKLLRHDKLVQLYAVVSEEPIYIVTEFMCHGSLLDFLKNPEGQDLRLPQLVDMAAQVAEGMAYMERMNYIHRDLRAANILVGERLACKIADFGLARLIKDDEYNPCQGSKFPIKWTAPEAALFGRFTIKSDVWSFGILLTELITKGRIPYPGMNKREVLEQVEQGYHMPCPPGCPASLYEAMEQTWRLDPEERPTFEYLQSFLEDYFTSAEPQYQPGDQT
Sequence of Mitogen-activated protein kinase 11 (Homo sapiens) (Q15759 whole entry): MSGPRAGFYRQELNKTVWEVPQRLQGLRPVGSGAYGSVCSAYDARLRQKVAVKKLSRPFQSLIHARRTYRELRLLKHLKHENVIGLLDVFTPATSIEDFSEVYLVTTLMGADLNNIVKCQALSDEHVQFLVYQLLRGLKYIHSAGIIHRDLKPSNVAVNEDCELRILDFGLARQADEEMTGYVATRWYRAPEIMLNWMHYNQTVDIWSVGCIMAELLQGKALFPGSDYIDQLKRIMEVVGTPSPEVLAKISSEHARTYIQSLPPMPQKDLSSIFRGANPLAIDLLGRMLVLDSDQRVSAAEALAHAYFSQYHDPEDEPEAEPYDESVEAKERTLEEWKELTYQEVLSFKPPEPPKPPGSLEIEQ
Sequence of Cyclin-dependent kinase 11B (Homo sapiens) (P21127 whole entry): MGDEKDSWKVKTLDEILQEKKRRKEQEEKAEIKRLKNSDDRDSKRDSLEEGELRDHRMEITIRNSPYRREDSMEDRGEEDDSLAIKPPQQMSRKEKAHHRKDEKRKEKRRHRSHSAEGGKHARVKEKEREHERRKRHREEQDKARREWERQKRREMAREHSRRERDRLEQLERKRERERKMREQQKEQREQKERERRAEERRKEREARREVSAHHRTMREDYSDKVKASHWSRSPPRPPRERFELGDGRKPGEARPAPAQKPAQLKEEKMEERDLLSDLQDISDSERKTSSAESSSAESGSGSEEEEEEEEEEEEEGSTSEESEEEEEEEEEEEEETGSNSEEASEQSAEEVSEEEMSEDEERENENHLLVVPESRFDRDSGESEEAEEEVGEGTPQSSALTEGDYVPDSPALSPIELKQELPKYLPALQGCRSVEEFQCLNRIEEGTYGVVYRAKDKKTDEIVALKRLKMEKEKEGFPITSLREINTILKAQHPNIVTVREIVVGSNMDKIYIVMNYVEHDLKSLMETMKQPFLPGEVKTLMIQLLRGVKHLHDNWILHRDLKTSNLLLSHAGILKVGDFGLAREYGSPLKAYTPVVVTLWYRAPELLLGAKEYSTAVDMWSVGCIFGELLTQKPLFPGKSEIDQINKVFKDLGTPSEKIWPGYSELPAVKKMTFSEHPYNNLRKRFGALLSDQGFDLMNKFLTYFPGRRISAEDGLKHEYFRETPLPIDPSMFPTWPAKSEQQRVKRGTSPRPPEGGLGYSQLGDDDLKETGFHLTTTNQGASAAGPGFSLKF
Sequence of Homeodomain-interacting protein kinase 4 (Homo sapiens) (Q8NE63 whole entry): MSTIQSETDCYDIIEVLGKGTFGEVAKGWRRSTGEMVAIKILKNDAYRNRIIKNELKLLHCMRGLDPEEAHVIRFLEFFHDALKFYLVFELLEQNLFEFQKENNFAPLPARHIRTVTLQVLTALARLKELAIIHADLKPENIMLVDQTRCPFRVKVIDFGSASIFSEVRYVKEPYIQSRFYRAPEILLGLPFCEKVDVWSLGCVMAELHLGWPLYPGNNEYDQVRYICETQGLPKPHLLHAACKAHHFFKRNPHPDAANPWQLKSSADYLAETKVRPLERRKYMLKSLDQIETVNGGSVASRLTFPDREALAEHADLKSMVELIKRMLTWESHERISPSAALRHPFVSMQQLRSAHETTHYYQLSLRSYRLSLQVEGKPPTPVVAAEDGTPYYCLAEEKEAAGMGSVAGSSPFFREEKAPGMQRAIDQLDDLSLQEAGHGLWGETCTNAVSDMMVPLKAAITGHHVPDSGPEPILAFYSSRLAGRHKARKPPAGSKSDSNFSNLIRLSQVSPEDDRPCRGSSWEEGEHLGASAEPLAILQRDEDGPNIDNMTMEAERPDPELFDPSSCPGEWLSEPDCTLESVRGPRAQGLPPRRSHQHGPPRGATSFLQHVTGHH
Sequence of Non-receptor tyrosine-protein kinase TYK2 (Homo sapiens) (P29597 whole entry, the tested form may be a part): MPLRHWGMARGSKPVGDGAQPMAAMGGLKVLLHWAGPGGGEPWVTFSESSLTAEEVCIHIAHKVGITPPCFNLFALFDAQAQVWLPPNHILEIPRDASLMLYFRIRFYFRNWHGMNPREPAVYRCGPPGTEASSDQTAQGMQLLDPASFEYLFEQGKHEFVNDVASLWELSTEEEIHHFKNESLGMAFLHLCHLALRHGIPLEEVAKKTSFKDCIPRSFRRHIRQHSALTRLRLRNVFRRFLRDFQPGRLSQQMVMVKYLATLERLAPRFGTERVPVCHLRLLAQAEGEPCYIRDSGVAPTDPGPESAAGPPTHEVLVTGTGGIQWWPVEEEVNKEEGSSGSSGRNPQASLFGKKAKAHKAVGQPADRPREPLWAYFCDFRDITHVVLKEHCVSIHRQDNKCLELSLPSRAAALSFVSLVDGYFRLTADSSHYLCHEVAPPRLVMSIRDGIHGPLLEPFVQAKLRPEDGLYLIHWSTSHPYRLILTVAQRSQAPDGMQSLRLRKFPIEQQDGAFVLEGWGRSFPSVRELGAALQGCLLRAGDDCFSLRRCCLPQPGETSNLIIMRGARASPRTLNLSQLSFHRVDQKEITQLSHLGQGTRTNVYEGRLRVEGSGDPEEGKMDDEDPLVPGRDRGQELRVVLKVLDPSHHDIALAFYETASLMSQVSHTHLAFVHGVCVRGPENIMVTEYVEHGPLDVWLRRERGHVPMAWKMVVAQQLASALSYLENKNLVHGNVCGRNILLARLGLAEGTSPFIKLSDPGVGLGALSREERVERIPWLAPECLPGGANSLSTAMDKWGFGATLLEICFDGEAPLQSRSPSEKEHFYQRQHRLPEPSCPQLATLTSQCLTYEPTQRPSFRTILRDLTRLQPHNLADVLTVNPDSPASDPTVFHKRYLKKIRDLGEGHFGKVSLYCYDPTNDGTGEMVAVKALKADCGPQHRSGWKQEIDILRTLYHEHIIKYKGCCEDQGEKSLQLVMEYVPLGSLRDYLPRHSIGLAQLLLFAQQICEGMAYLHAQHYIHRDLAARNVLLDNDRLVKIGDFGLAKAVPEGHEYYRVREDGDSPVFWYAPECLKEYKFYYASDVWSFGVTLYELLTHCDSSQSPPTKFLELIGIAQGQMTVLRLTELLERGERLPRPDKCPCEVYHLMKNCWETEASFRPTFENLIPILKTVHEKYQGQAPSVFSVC
Sequence of Casein kinase II subunit alpha (Homo sapiens) (P68400 whole entry, looked up): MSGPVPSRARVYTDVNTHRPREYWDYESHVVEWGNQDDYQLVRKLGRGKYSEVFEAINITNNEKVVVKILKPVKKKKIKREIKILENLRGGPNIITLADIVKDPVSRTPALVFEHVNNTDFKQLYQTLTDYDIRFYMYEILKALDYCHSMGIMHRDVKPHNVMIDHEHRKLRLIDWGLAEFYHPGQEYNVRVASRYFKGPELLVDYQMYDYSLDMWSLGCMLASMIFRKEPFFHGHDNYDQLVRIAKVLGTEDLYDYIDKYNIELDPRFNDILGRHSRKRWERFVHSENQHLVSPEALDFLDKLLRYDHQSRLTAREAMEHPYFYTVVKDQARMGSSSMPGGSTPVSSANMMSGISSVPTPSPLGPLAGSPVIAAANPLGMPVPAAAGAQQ

With `CN1C(=O)/C(=C2/C(=O)Nc3ccccc32)c2ccccc21` the Activity [1] was 87%, the Activity [2] was 81% and the Activity [3] was 79%. The Activity [4] was 99%, the Activity (KG-1) was “Active” and the Activity [5] was 89%. It also gave an Activity [6] of 88%, an Activity [7] of 90% and an Activity [8] of 100%. For the same compound, the Activity [9] was 90%, the Activity [10] was 95% and the Activity [11] was 89%. For the same compound, the Activity [12] was 95%, the Activity [13] was 100% and the Activity [14] was 100%. The Activity [15] was 97%, the Activity [16] was 89% and the Activity [17] was 78%. For the same compound, the Activity [18] was 100%, the Activity [19] was 83% and the Activity [20] was 100%. For the same compound, the Activity [21] was 100%, the Activity [22] was 92% and the Activity [23] was 100%. The Activity [24] was 91%, the Activity [25] was 81% and the Activity [26] was 96%. The Activity [27] was 88% and the Activity [28] was 71%.
